A word on the EC50: it is the concentration at which the effect is half-maximal. The IC50 is the concentration at which inhibition is half-maximal.

Experimental findings from patent EP4782453A1 (Beyang Therapeutics Co., Ltd., priority 2023, dated 2025) are described below.

Holding throughout (assay type): cell-based
The test system of experiment [1] is MEIS1 gene expression. The experiment in a line: Inhibition of MEIS1 gene expression in human tumor cells (qRT-PCR), OCI-AML3. The conditions noted are these: OCI-AML-3, OCI-AML3 (carrying NPM1c), 48 hours of incubation, relative MEIS1 gene expression vs GAPDH. The source says:
Experimental Example 3: Evaluation of Inhibitory Activity of Compounds Against MEISI Gene Expression in Human Tumor Cells
The effect of test samples on MEIS1 gene expression in vitro cultured human leukemia cells MV-4-11 (carrying MLL-AF4), MOLM-13 (carrying MLL-AF9), and OCI-AML3 (carrying NPM1c) was studied.
• Human acute lymphoblastic leukemia cells MV-4-11, purchased from American Type Culture Collection, Catalog Number: CRL-9591; • Human acute myeloid leukemia cells MOLM-13, purchased from COBIOER BIOSCIENCES CO., LTD, Catalog Number: CBP60678; • Human acute myeloid leukemia cells OCI-AML3, purchased from COBIOER BIOSCIENCES CO., LTD, Catalog Number: CBP60817; • MEIS1 Primer/Probe, purchased from IDT, Catalog Number: 40831613; and • GAPDH Primer/Probe, purchased from IDT, Catalog Number: 22214836.
MV-4-11 cells were cultured in an IMDM medium containing 10% fetal bovine serum, or MOLM-13 and OCI-AML3 cells were cultured in an RPMI-1640 medium containing 20% fetal bovine serum, each supplemented with 100 U·mL^-1 penicillin and 100 µg·mL^-1 streptomycin. These cells were cultured at 37°C with 5% CO2. The suspensions of individual cell lines were prepared in their respective media and seeded into 48-well plates at a density of 100,000 cells/well. On the day of the experiment, a compound stock solution was diluted in a 6-fold gradient using DMSO. Each gradient-diluted stock solution was then further diluted 250-fold with a complete medium to prepare a series of working solutions at different concentrations. Next, 250 µL of working solution (containing the complete medium with a 2-fold serial concentration of the test compound or a positive control compound, or containing a control complete medium) was added to each well. After 48 hours of incubation, cells from the 48-well plate were collected into 1 mL centrifuge tubes, centrifuged at 1000 rpm for 5 minutes, and the complete medium was removed. Cells were washed twice with 1 mL PBS and centrifuged to remove PBS. Total RNA was extracted using the RNeasy Mini Kit (250) (QIAGEN, 74106). The threshold cycle (Ct) value for gene expression was determined using the HiScript II U+ One Step qRT-PCR Probe Kit (Vazyme) (Vazyme, Q223-01), with 3 replicates per sample. The prepared reaction mixture was placed in an ABI 7500 real-time PCR instrument, and the reaction proceeded following the procedures below. [formula]
Next, for the relative MEIS1 gene expression, the concentration (EC50) that inhibits 50% of relative MEIS1 gene expression was calculated using GraphPad Prism 8 software.
On the technique in general: In qPCR the cycle at which signal appears reflects the starting amount.

Experiment [2] concerns MOLM-13 (carrying MLL-AF9). Briefly: Inhibition of proliferation of human tumor cells (Alamar Blue, 7 days), MOLM-13. The following applies: Homo sapiens, 168 h, MOLM-13 cells (carrying MLL-AF9), method calls the value GI50. The method, boiled down:
(§1)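 Seven-day continuous compound exposure in duplicate wells, with 0.1% DMSO vehicle. Proliferation is quantified by Alamar Blue fluorescence and expressed as GI50, using Day 0 readings as the low reference.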
On the technique in general: The colour change of resazurin is a common sign of viable cells or microbes.

For experiment [3], the system named is MEIS1 gene expression. The experiment in a line: Inhibition of MEIS1 gene expression in human tumor cells (qRT-PCR), MOLM-13. The conditions noted are these: MOLM-13 (carrying MLL-AF9), 48 hours of incubation, relative MEIS1 gene expression vs GAPDH. The method, boiled down:
(§2)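 MV-4-11 (MLL-AF4; IMDM, 10% FBS), MOLM-13 (MLL-AF9) and OCI-AML3 (NPM1c) (RPMI-1640, 20% FBS) seeded at 100,000 cells/well and treated 48 h with serially diluted compound. MEIS1 mRNA measured by one-step probe qRT-PCR from total RNA, triplicates, GAPDH primer/probe included; EC50 for inhibition of relative MEIS1 expression.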

For experiment [4], the system named is MEIS1 gene expression. Briefly: Inhibition of MEIS1 gene expression in human tumor cells (qRT-PCR), MV-4-11. The conditions noted are these: MV4-11, MV-4-11 (carrying MLL-AF4), 48 hours of incubation, relative MEIS1 gene expression vs GAPDH, read-out: MV-4-11 MEISI EC50. In outline:
as §2

In experiment [5] the test system is MV-4-11 (carrying MLL-AF4). Briefly: Inhibition of proliferation of human tumor cells (Alamar Blue, 7 days), MV-4-11. The conditions noted are these: Homo sapiens, MV4-11, 168 h, MV-4-11 cells (carrying MLL-AF4), method calls the value GI50. The method, boiled down:
as §1

Molecules are shown by their SMILES.

For `CCN1CCN(CCC[C@H](C(C)C)N2CC(c3cc(-c4ccc(F)cc4C(=O)N4CCOC[C@H]4C)c4cnc(C)n4c3)C2)CC1` [Example 324-2], the results for the EC50 with MEIS1 gene expression [1], in the experiment with MEIS1 gene expression [3] and in the experiment on MEIS1 gene expression [4] were 9.5 nM, 1.3 nM and 7.3 nM, respectively. Further, the IC50 in experiment [2] was 9.2 nM; in experiment [5] it was 1.3 nM.
Regarding `Cc1ncc2c(-c3ccc(F)cc3C(=O)N3CCOC[C@H]3C)cc(C3CN([C@H](CCCN4CCN(C)CC4)C(C)C)C3)cn12` [Example 323-2, (3R)-4-[5-fluoro-2-(3-methyl-6-{1-[(3R)-2-methyl-6-(4-methylpiperazin-1-yl)hexan-3-yl]azacyclobutan-3-yl}imidazo[1,5-a]pyridin-8-yl)benzoyl]-3-methylmorpholine], the EC50 with MEIS1 gene expression [1] came out at 17 nM; in the experiment with MEIS1 gene expression [3], 8.4 nM; in the experiment with MEIS1 gene expression [4], 8.6 nM. For the same molecule, the 50% inhibitory concentration (IC50) stood at 15 nM in experiment [2] and 2.4 nM in experiment [5].
Regarding `CCN(C(=O)c1cc(F)ccc1-c1cc(C2CN([C@H](CCCN3CCN(C)CC3)C(C)C)C2)cn2c(C)ncc12)C(C)C` [Example 310-2, N-ethyl-5-fluoro-2-(3-methyl-6-{1-[(3R)-2-methyl-6-(4-methylpiperazin-1-yl)hexan-3-yl]azacyclobutan-3-yl}imidazo[1,5-a]pyridin-8-yl)-N-(isopropyl)benzamide], the EC50 with MEIS1 gene expression [1] was 12 nM; in the experiment with MEIS1 gene expression [3], 6.5 nM; with MEIS1 gene expression [4] it was 5 nM. Moreover, the IC50 worked out at 6.2 nM in experiment [2] and 0.97 nM in experiment [5].
In the same order, the values of `Cc1nc(F)c2c(-c3ccc(F)cc3C(=O)N3CCOC[C@H]3C)cc(C3CN([C@H](CCCN4CCC(F)CC4)C(C)C)C3)cn12` [Example 314] are 8.9 nM, 3.4 nM, 13 nM, 7.3 nM and 1.1 nM.
The matching figures for `Cc1nc(F)c2c(-c3ccc(F)cc3C(=O)N3CCOC[C@H]3C)cc(C3CN([C@H](CCCN4CCC[C@H](O)C4)C(C)C)C3)cn12` [Example 293]: 31 nM, 9.1 nM, 23 nM, 24 nM and 2 nM.
The matching figures for `CCN(C(=O)c1cc(F)ccc1-c1cc(C2CN([C@H](CCCN3C4COCC3C4)C(C)C)C2)cn2c(C)ncc12)C(C)C` [Example 423]: 6.1 nM, 2.3 nM, 1.3 nM, 2.7 nM and 1.2 nM.
As to `Cc1nc(F)c2c(-c3ccc(F)cc3C(=O)N3CCOC[C@H]3C)cc(C3CN([C@H](CCCN4C[C@H]5C[C@@H]4CO5)C(C)C)C3)cn12` [Example 353, (1R,4R)-5-[(4R)-4-[3-(1-fluoro-8-{4-fluoro-2-[(3R)-3-methylmorpholin-4-carbonyl]phenyl}-3-methylimidazo[1,5-a]pyridin-6-yl)azacyclobutan-1-yl]-5-methylhexyl]-2-oxa-5-azabicyclo[2.2.1]heptane], the EC50 is 21 nM in the experiment on MEIS1 gene expression [1], 2.4 nM in the experiment on MEIS1 gene expression [3] and 7.4 nM in the experiment with MEIS1 gene expression [4]. Besides, the IC50 came out at 5.4 nM in experiment [2] and 4.1 nM in experiment [5].
The matching figures for `CCN1CCN(CCC[C@H](C(C)C)N2CC(c3cc(-c4ccc(F)cc4C(=O)N4CCOC[C@H]4C)c4c(F)nc(C)n4c3)C2)CC1` [Example 277]: 12 nM, 3.3 nM, 6.5 nM, 7.3 nM and 1.6 nM.
The matching figures for `CCN(C(=O)c1cc(F)ccc1-c1cc(C2CN([C@H](CCCN3CCN(C)CC3)C(C)C)C2)cn2c(C)nc(F)c12)C(C)C` [Example 312-2]: 3.9 nM, 2.5 nM, 5.7 nM, 5.3 nM and 0.91 nM.
